Laboratory results taken from patent publication US20040053355A1, “Modular approach to on-line synthesis, drug discovery and biochemical transformations using immobilized enzyme reactors” (priority 2000, published 2004).
Counter-ions that a name gives are not always drawn. Like-named read-outs stand apart in the source and are kept apart here.

What was measured:
[1] = target: T1, PNMT-Glut-P stationary phase (PNMT-SP) (Bos taurus, UniProt P10938); details: Table 7, *Data obtained from reference 14; cited from earlier work
T1 sequence (P10938 1-283): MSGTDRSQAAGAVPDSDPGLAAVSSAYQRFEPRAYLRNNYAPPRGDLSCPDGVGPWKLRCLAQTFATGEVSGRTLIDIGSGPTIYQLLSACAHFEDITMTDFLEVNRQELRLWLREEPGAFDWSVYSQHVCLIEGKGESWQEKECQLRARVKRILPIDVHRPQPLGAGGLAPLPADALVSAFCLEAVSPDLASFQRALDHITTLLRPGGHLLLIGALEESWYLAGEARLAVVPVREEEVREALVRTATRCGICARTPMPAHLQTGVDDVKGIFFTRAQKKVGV

[2] = target: T1, PNMT-Glut-P stationary phase (PNMT-SP); experiment: PNMT immobilized on Glut-P stationary phase (PNMT-SP), batch assay; assay type: biochemical, bovine
Description: (§1) The activity of phenylethanolamine N-methyltransferase was assayed as follows: [final concentration] To 500 μL of enzyme solution [163 μg] was added 50 μL S-adenosyl-L-methionine [20 μM] and the solution was vortexed for 1 min. The reaction was started by addition of the 50 μL substrate [1 mM]. The reaction medium was incubated for 10 min at 37° C. in a shaking bath. The resulting solution was centrifuged at 3000×g and the supernatant were directly injected onto the HPLC under the above mentioned conditions.
Immobilization onto the Glut-P Liquid Chromatographic stationary phase was accomplished in the following manner: (1) the stationary phase (10-100 mg) was washed three times with 0.1 M sodium phosphate buffer adjusted to pH 8.30 with 5M NaOH. The washing was carried out by adding 1 ml of buffer to the stationary phase, the suspension was mixed for 1 min, centrifuged at 3000×g for 10 min, and the supernatant decanted. (2) The enzyme solution [98 μg in 0.6 ml sodium phosphate buffer (0.1M, pH 8.30)] was added to the packing material, the mixture was mixed gently for 5 min and then placed in a rotator/stirrer bath for 18 h at ambient temperature. (3) At the end of 18 h, the suspension was centrifuged, the supernatant decanted and the packing material was washed three additional times with buffer. (4) The amount of enzyme immobilized on the packing material was determined by measuring the amount of residual enzyme in the supernatant using the BioRad Protein Assay. The difference in the absorbance reading before immobilization and the combined absorbances of the washings after immobilization determined the amount of enzyme bound on the packing material.

[3] = target: T2, phenylethanolamine N-methyltransferase (PNMT), non-immobilized (Bos taurus, UniProt P10938); experiment: Non-immobilized PNMT activity assay, batch incubation with HPLC-fluorescence analysis; assay type: biochemical, bovine
T2 sequence (P10938 1-283): T1 sequence (P10938 1-283)
Description: A mobile phase consisting of potassium phosphate buffer (50 mM) adjusted to pH 2.0 with trifluoroacetic acid was utilized to achieve the desired chromatographic separation of the products from the substrates. The solutes were quantitated using fluorescence detection with excitation at λ=266 nm and emission at λ=380 nm. A flow rate of 0.7 ml/min and ambient temperature were used throughout the study.
as §1

[4] = target: T3, PNMT-IMER (immobilized phenylethanolamine N-methyltransferase) (Bos taurus, UniProt P10938); experiment: On-line PNMT immobilized enzyme reactor (PNMT-IMER) HPLC system; assay type: biochemical, bovine; details: for IC50: n = 2, read-out: IC 50 PNMT-IMER
T3 sequence (P10938 1-283): T1 sequence (P10938 1-283)
From the text: PNMT immobilized on the Glut-P stationary phase was packed into a lcm×10 mm guard (Regis Technologies). The guard was put into a holder and the column was placed onto the chromatographic system. The PNMT-IMER was washed with phosphate buffer [0.1M, pH 8.3]. The eluent was collected in order to determine if any of the enzyme was being washed off the column. The Biorad assay was utilized to measure the amount of non-immobilized enzyme. When the column was not in use it was washed with phosphate buffer [0.1M, pH 8.3] and stored at 4° C.
The pump on system 2 is stopped. 100 μl of a substrate/cofactor mixture is loaded into the injector (i) and the value is switched to the inject position at the same time the switching valve (SV) is switched such that the substrate/product are eluted from the PNMT-IMER and concentrated onto the analytical columns of System 2 for the specified contact time. When the specific contact time elapses the SV is switched back to the original position and the pump on system 2 is started. The unreacted substrate and product formed are separated on the coupled analytical columns.
The enzymatic activity on the PNMT-IMER was determined by quantification of the amount of product formed with a given substrate. The temperature of the PNMT-IMER unless otherwise stated was kept at 37° C. with a column heater. Stock solutions of normetanephrine were prepared in water. The substrate concentrations examined ranged from 0.15-10 mM and that of the cofactor, S-adenosyl-L-methionine, ranged from 5-100 μM.
Enzymatic activity was examined carrying out injections of a series of substrate/cofactor mixtures. The mixtures were injected onto the IMER at a flow rate of 0.2 ml/min for a contact time of 20 min. The kinetic parameters were determined by drawing Lineweaver-Burke plots utilizing Microsoft Excel. Results are expressed as mean±standard error of the mean (SEM).
The effect of known inhibitors, S-adenosylhomocysteine and methyldopa on the enzymatic activity of the PNMT-IMER was also examined. The inhibition of the PNMT-IMER was carried out using injections of a series of substrate/cofactor/inhibitor mixtures.

[5] = non-immobilized PNMT, read-out: Ki PNMT
[6] = immobilized PNMT, read-out: Ki PNMT-SP
[7] = 0.2 ml/min, contact time 20 min, 37° C., n = 2

Molecule: COc1cc(C(O)CN)ccc1O (racemic) [Normetanephrine, DL-normetanephrine hydrochloride]
- Km [1]: 152 µM
- Vmax [1]: 0.823 µmol/mg/min
- Vmax ([2]; PNMT-SP, Table 5): 0.823 µmol/mg/min

Molecule: Cl.NCc1ccccc1 [Benzylamine, benzylamine hydrochloride]
- concentration as low as which the enzyme is inhibited ([3]; non-immobilized PNMT): 100 µM
- Ki [3, 5]: 220 ± 110 µM
- inhibition of PNMT activity, immobilized PNMT compared to the non-immobilized PNMT ([2]; FIG. 8): three times higher
- concentration as low as which the enzyme is inhibited ([2]; immobilized PNMT): 100 µM
- Ki [2, 6]: 690 ± 100 µM

Molecule: CCN1C(=O)C=CC1=O [N-ethylmaleimide]
- Ki [3, 5]: 1.04 ± 0.49 µM
- Ki [2, 6]: 4.92 ± 0.16 µM

Molecule: Nc1ncnc2c1ncn2[C@@H]1O[C@H](CSCC[C@H](N)C(=O)O)[C@@H](O)[C@H]1O [SAH, S-adenosyl-L-homocysteine]
- concentration as low as which the PNMT-IMER is inhibited [4]: 5 µM
- IC50 [4]: 50.5 ± 1.5 µM
- IC50 [3]: 40.1 µM

Molecule: C[S+](CC[C@H](N)C(=O)O)C[C@H]1O[C@@H](n2cnc3c(N)ncnc32)[C@H](O)[C@@H]1O (stereo partly drawn) [SAM, S-adenosyl-L-methionine]
- Km [4, 7]: 7.31 µM
- Vmax [4, 7]: 0.424 µmol/mg/min
- Km [1]: 10.6 µM
- Vmax [1]: 0.254 µmol/mg/min
- Km ([3]; non-immobilized PNMT): 14.2 µM
- Vmax ([3]; non-immobilized PNMT): 1.249 µmol/mg/min
- Km ([2]; PNMT-SP, Table 5): 10.6 µM
- Vmax ([2]; PNMT-SP, Table 5): 0.654 µmol/mg/min

Molecule: O=S(=O)(O)c1cc[c]([Hg][Cl])cc1 [p-chloromercuriphenylsulfonic acid, p-chloromercuriphenylsulfonic acid monosodium salt]
- Ki [3]: 120 ± 140 µM
- Ki [2]: 520 ± 190 µM

Molecule: methyl-dopa
- concentration as low as which the PNMT-IMER is inhibited [4]: 1 µM
- IC50 [4]: 7.6 ± 0.2 µM
- IC50 ([3]; non-immobilized PNMT, n = 2, read-out: IC 50 PNMT): 10.4 µM
